Like-named read-outs stand apart in the source and are kept apart here.
Columns and labels:
[1] = tested on: A. fumigatus; experiment: Broth microdilution (NCCLS M38-A) checkerboard assay, A. fumigatus; assay type: cell-based, Aspergillus fumigatus; settings: for MIC: Aspergillus fumigatus, agent alone, read-out: MIC-2 of each agent, Alone
Method: (§1) Stock solutions of amphotericin B (AMB, Sigma), caspofungin (Caspo), voriconazole (VOR) and itraconazole (ITZ) were prepared according to the National Committee for Clinical Laboratory Standards (M38-A) in RPMI 1640 with glutamine broth medium, buffered to pH 7.0 with […] morpholinopropanesulphonic acid (MOPS). AMB stock solutions were prepared as a 100× series in 100% dimethyl sulfoxide (DMSO) and diluted in medium to a concentration range of 0.03125 to 16 μg/ml. Caspofungin, voriconazole and itraconazole were tested at a concentration range of 0.03125 to 1024 μg/ml, and Mycograb® (NeuTec Pharma plc) at a concentration range of 0.25 to 1024 μg/ml.
(§2) Clinical isolates of Aspergillus fumigatus (2), A. flavus (1), A. terreus (1) and A. niger (1) were obtained from the Department on Microbiology, Manchester Royal Infirmary, Manchester, UK.
(§3) An inoculum suspension was prepared in buffered RPMI with glutamine medium by probing colonies from a 7 day old Sabouraud plate. The suspension was adjusted to 0.09-0.11 (80% to 82% transmittance) for Aspergillus species, 0.15-0.17 (68% to 70% transmittance). The inoculum was diluted a further 1:2 when added to the antifungal agents in the assay (final inoculum (0.4×10^4 to 0.5×10^4). For AMB and Mycograb®, either alone or in combination, the endpoint was determined as the concentration to produce no growth (MIC-0). Microtitre plates were incubated at 37° C. without agitation for 48 hours for Aspergillus species. For caspofungin, voriconazole and itraconazole, either alone or in combination with Mycograb® antibody, the MIC endpoint was determined as the concentration resulting in a prominent decrease in turbidity (≧50% growth inhibition, MIC-2) compared to the growth control (Keele et al. 2001; Espinel-Ingroff 2003). The final inhibitory concentration (FIC) was calculated for each drug by dividing the MIC in the presence of the second drug by the MIC in its absence. For each combination, two fractions were produced which were summated to produce the fractional final inhibitory concentration. Synergy was defined by value of ≦0.5, indifference was defined by a value of >0.5 to <4.0, and antagonism was defined by a value of ≧4.0 (Matthews et al., 2003).

[2] = tested on: A. fumigatus CI2; experiment: Broth microdilution (NCCLS M38-A) checkerboard assay, A. fumigatus CI2; assay type: cell-based, Aspergillus fumigatus; settings: for MIC: Aspergillus fumigatus, agent alone, read-out: MIC-2 of each agent, Alone
Method: as §1, §2, §3

[3] = tested on: A. niger; experiment: Broth microdilution (NCCLS M38-A) checkerboard assay, A. niger; assay type: cell-based; settings: for MIC: Aspergillus niger, agent alone, read-out: MIC-2 of each agent, Alone
Method: as §1, §2, §3

[4] = tested on: A. flavus; experiment: Broth microdilution (NCCLS M38-A) checkerboard assay, A. flavus; assay type: cell-based; settings: for MIC: Aspergillus flavus, agent alone, read-out: MIC-2 of each agent, Alone
Method: as §1, §2, §3

[5] = tested on: A. terreus; experiment: Broth microdilution (NCCLS M38-A) checkerboard assay, A. terreus; assay type: cell-based; settings: for MIC: Aspergillus terreus, agent alone, read-out: MIC-2 of each agent, Alone; for FIC: MIC in combination divided by MIC alone
Method: as §1, §2, §3

[6] = tested on: Aspergillus species; experiment: Antifungal activity with Mycograb antibody, summary over the Aspergillus species examined; assay type: cell-based
Method: as §3

[7] = Table 3, ≧50% growth inhibition endpoint
[8] = itraconazole and Mycograb combination
[9] = itraconazole and Mycograb in combination
[10] = Table 2, ≧50% growth inhibition endpoint
[11] = caspofungin and Mycograb combination
[12] = caspofungin and Mycograb in combination

How did the MIC [1, 7] turn out when `CCC(C)n1ncn(-c2ccc(N3CCN(c4ccc(OCC5COC(Cn6cncn6)(c6ccc(Cl)cc6Cl)O5)cc4)CC3)cc2)c1=O` (centres unmarked) [ITZ, itraconazole] was run?
The MIC was 0.5 µg/mL.

And the FICI [1, 8]?
Its FICI is 0.0781.

And the Outcome [1, 8]?
The Outcome was “Synergy (Synergy was defined by value of ≦0.5)”.

What about the “MIC-2 of each agent, Combination” value [1, 9] of the same molecule?
Its value is 0.0312 µg/mL.

What about the MIC [2, 7] of the same molecule?
The MIC was 0.5 µg/mL.

What about the FICI [2, 8] of the same molecule?
Its FICI is 0.2578.

And the Outcome [2, 8]?
The Outcome was “Synergy (Synergy was defined by value of ≦0.5)”.

What about the “MIC-2 of each agent, Combination” value [2, 9] of the same molecule?
The value was 0.125 µg/mL.

And the MIC [3, 7]?
Its MIC is 0.125 µg/mL.

And the FICI [3, 8]?
Its FICI is 0.375.

What about the Outcome [3, 8] of the same molecule?
The Outcome was “Synergy (Synergy was defined by value of ≦0.5)”.

And the “MIC-2 of each agent, Combination” value [3, 9]?
The value was 0.0156 µg/mL.

What about the MIC [4, 7] of the same molecule?
Its MIC is 0.125 µg/mL.

What about the FICI [4, 8] of the same molecule?
The FICI was 0.25.

And the Outcome [4, 8]?
The Outcome was “Synergy (Synergy was defined by value of ≦0.5)”.

What about the “MIC-2 of each agent, Combination” value [4, 9] of the same molecule?
The value was 0.0312 µg/mL.

And the MIC [5, 7]?
Its MIC is 0.125 µg/mL.

And the FICI [5, 8]?
Its FICI is 0.281.

And the Outcome [5, 8]?
The Outcome was “Synergy (Synergy was defined by value of ≦0.5)”.

And the “MIC-2 of each agent, Combination” value [5, 9]?
Its value is 0.0312 µg/mL.

What about the FIC ([5]; itraconazole and Mycograb) of the same molecule?
The FIC was 0.25 µg/mL.

With `CC[C@@H]([C@H](C)O)n1ncn(-c2ccc(N3CCN(c4ccc(OC[C@@H]5CO[C@@](Cn6cncn6)(c6ccc(F)cc6F)C5)cc4)CC3)cc2)c1=O` [posaconazole] as the molecule, how does the “Synergy with antibody specific for Aspergillus hsp90 epitope” value ([6]; preliminary results) read?
Its value is “capable of achieving similar synergistic results”.

With `CC[C@H](C)C[C@H](C)CCCCCCCCC(=O)N[C@H]1C[C@@H](O)[C@@H](NCCN)NC(=O)[C@@H]2[C@@H](O)CCN2C(=O)[C@H]([C@H](O)CCN)NC(=O)[C@H]([C@H](O)[C@@H](O)c2ccc(O)cc2)NC(=O)[C@@H]2C[C@@H](O)CN2C(=O)[C@H]([C@@H](C)O)NC1=O` [Caspo, caspofungin] as the molecule, how does the MIC [1, 10] read?
The MIC was 0.125 µg/mL.

What about the FICI [1, 11] of the same molecule?
The FICI was 0.562.

And the Outcome [1, 11]?
Its Outcome is “Indifferent (indifference was defined by a value of >0.5 to <4.0)”.

And the “MIC-2 of each agent, Combination” value [1, 12]?
Its value is 0.0625 µg/mL.

And the MIC [2, 10]?
The MIC was 0.125 µg/mL.

And the FICI [2, 11]?
The FICI was 0.562.

What about the Outcome [2, 11] of the same molecule?
The Outcome was “Indifferent (indifference was defined by a value of >0.5 to <4.0)”.

What about the “MIC-2 of each agent, Combination” value [2, 12] of the same molecule?
The value was 0.0625 µg/mL.

And the MIC [3, 10]?
The MIC was 1 µg/mL.

And the FICI [3, 11]?
The FICI was 0.125.

What about the Outcome [3, 11] of the same molecule?
Its Outcome is “Synergy (Synergy was defined by value of ≦0.5)”.

What about the “MIC-2 of each agent, Combination” value [3, 12] of the same molecule?
The value was 0.125 µg/mL.

What about the MIC [4, 10] of the same molecule?
Its MIC is 1 µg/mL.

What about the FICI [4, 11] of the same molecule?
Its FICI is 0.500.

What about the Outcome [4, 11] of the same molecule?
The Outcome was “Indifferent (indifference was defined by a value of >0.5 to <4.0)”.

And the “MIC-2 of each agent, Combination” value [4, 12]?
Its value is 0.5 µg/mL.

What about the MIC [5, 10] of the same molecule?
The MIC was 0.312 µg/mL.

And the FICI [5, 11]?
Its FICI is 0.312.

And the Outcome [5, 11]?
Its Outcome is “Synergy (Synergy was defined by value of ≦0.5)”.

What about the “MIC-2 of each agent, Combination” value [5, 12] of the same molecule?
Its value is 0.078 µg/mL.

What about the FIC ([5]; caspofungin and Mycograb) of the same molecule?
Its FIC is 0.25 µg/mL.

And the “Antifungal activity / surprising effect when used in combination with Mycograb antibody” value ([6]; summary of Tables 1-4, agent combined with Mycograb antibody)?
Its value is “not observed”.

From patent US20080095778A1, “Treatment Of Fungal Infections” (priority 2004, published 2008)
